From patent US7718651B2, “Inhibitors of FtsZ and uses thereof” (priority 2002, dated 2010)
In brackets after ≈: the same amount, converted by molar mass. Where two headings read alike, the source gives them in different places.

System: single drug resistant strains of M. tuberculosis
Test: microbe, parasite or virus in culture
Format: cell-based
Settings: for MIC: Mycobacterium tuberculosis

Row | SMILES | susceptibility of singly resistant strains | MIC (read-out: MIC, EMB-R) | MIC (read-out: MIC, INH-R) | MIC (read-out: MIC, KM-R) | MIC (read-out: MIC, RMP-R) | MIC (read-out: MIC, CS-R) | MIC (read-out: MIC, PZA-R) | MIC (read-out: MIC, TAC-R)
1 | CCOC(=O)Nc1cc(NC(C)CCCN(CC)CC)c2nc(-c3ccccc3)c(-c3ccccc3)nc2n1 (stereo not shown) [SRI-3072, [8-(4-Diethylamino-1-methyl-butylamino)-2,3-diphenyl-pyrido[2,3-b]pyrazin-6-yl]-carbamic acid ethyl ester] | uniformly susceptible | ≤ 0.1 µg/mL | 0.78 µg/mL (≈ 1.48 µM) | ≤ 0.1 µg/mL | ≤ 0.1 µg/mL | – | – | –
2 | CCOC(=O)Nc1cc2c(c(N)n1)N=C(c1ccccc1)CCN2 [SRI-7614, (1-Amino-8-phenyl-6,7-dihydro-5H-2,5,9-triaza-benzocyclohepten-3-yl)-carbamic acid ethyl ester] | uniformly susceptible | 3.12 µg/mL (≈ 9.59 µM) | 6.25 µg/mL (≈ 19.2 µM) | 6.25 µg/mL (≈ 19.2 µM) | 3.12 µg/mL (≈ 9.59 µM) | 3.12 µg/mL (≈ 9.59 µM) | 3.12 µg/mL (≈ 9.59 µM) | 3.12 µg/mL (≈ 9.59 µM)
